Measurements from BindingDB's records for doi:10.1016/j.bmcl.2010.08.063 (Merck Research Laboratories, 2010).

test: Positive modulation of GluR1

| Compound | EC50 |
| --- | --- |
| O=C(Cn1nc(C(F)(F)F)c2c1CCCC2)Nc1sc2c(c1C(=O)N[C@@H]1CCNC1)CCCC2 | 251 nM |
| O=C(Cn1nc(C(F)(F)F)c2c1CCCC2)Nc1sc2c(c1CO)CCCC2 | 251 nM |
| COCCNCc1cn(CC(=O)Nc2sc3c(c2C(N)=O)CCCC3)nc1C(F)(F)F | 1580 nM |
| CCN(CC)Cc1cn(CC(=O)Nc2sc3c(c2C(N)=O)CCCC3)nc1C(F)(F)F | 631 nM |
| NC(=O)c1c(NC(=O)Cn2cc(CN3CCC3)c(C(F)(F)F)n2)sc2c1CCCC2 | 1000 nM |
| CNCc1cn(CC(=O)Nc2sc3c(c2C(N)=O)CCCC3)nc1C(C)(C)C | 316 nM |
| CN(C)Cc1cn(CC(=O)Nc2sc3c(c2C(N)=O)CCCC3)nc1C(C)(C)C | 316 nM |
| CC(C)(C)c1nn(CC(=O)Nc2sc3c(c2C(N)=O)CCCC3)cc1CNC1CC1 | 1580 nM |
| CCNCc1cn(CC(=O)Nc2sc3c(c2C(N)=O)CCCC3)nc1C(C)(C)C | 794 nM |
| CC(C)NCc1cn(CC(=O)Nc2sc3c(c2C(N)=O)CCCC3)nc1C(C)(C)C | 1580 nM |
| CCNCc1cn(CCC(=O)Nc2sc3c(c2C(N)=O)CCCC3)nc1C(F)(F)F | 2510 nM |
| CCN(CC)Cc1cn(CCC(=O)Nc2sc3c(c2C(N)=O)CCCC3)nc1C(F)(F)F | 2000 nM |
| NC(=O)c1c(NC(=O)Cn2nc(C(F)(F)F)c3c2CCNC3)sc2c1CCCC2 | 1000 nM |

The next lines start with the values.

| EC50 | Compound |
| --- | --- |
| 794 nM | NCc1cn(CC(=O)Nc2sc3c(c2C(N)=O)CCCC3)nc1C(F)(F)F |
| 126 nM | CNCc1cn(CC(=O)Nc2sc3c(c2C(N)=O)CCCC3)nc1C(F)(F)F |
| 794 nM | CCNCc1cn(CC(=O)Nc2sc3c(c2C(N)=O)CCCC3)nc1C(F)(F)F |
| 501 nM | CN(C)Cc1cn(CC(=O)Nc2sc3c(c2C(N)=O)CCCC3)nc1C(F)(F)F |
| 3160 nM | CC(C)NCc1cn(CC(=O)Nc2sc3c(c2C(N)=O)CCCC3)nc1C(F)(F)F |
| 631 nM | NC(=O)c1c(NC(=O)Cn2cc(CNC3CC3)c(C(F)(F)F)n2)sc2c1CCCC2 |
| 1580 nM | CNCc1cn(CCC(=O)Nc2sc3c(c2C(N)=O)CCCC3)nc1C(F)(F)F |
| 1580 nM | CNCc1cn(CC(=O)Nc2sc3c(c2C(=O)NC)CCCC3)nc1C(F)(F)F |
